EC50 data for 15 compounds are collected here from patent US8354419B2, “Benzimidazole analogues for the treatment or prevention of flavivirus infections” (Vertex Pharmaceuticals Incorporated, priority 2009, dated 2013).

Molecules are shown by their SMILES. Where only a bound is given, the exact number is not on record here.

The subject of this assay is HCV (Ib) RNA replication. In words: Cell-based luciferase reporter HCV (1b) RNA replication assay (replicon cell lines Huh-7 5.2 and ET). The arrangement: species or system Hepatitis C virus. To be noted: Hepatitis C virus, Huh-7, 96 h, HCV 1b genotype replicon, luciferase readout, 4 days incubation; read-out: EC50_1b. An excerpt:
Cell-Based Luciferase Reporter HCV (Ib) RNA Replication Assay Cell Culture
Replicon cell lines Huh-7, 5.2 and ET which are derived from the Huh-7 hepatocarcinoma cell line are maintained in culture as generally described in Krieger, N; Lohmann, V; Bartenschlager, R. Enhancement of hepatitis C virus RNA replication by cell culture-adaptive mutations. J. Virol. 2001, 75, 4614-4624. The Huh-7, 5.2 cells contain the highly cell culture-adapted replicon I389luc-ubi-neo/NS3-3′/5.1 construct that carries, in addition to the neomycin gene, an integrated copy to the firefly luciferase gene (Krieger, N; Lohmann, V; Bartenschlager, R. Enhancement of hepatitis C virus RNA replication by cell culture-adaptive mutations. J. Virol. 2001, 75, 4614-4624). This cell line allows measurement of HCV RNA replication and translation by measuring luciferase activity. It has been previously shown that the luciferase activity tightly follows the replicon RNA level in these cells (Krieger, N; Lohmann, V; Bartenschlager, R. Enhancement of hepatitis C virus RNA replication by cell culture-adaptive mutations. J. Virol. 2001, 75, 4614-4624). The Huh-7, ET cell line has the same features as those mentioned for Huh-7, 5.2 cell line, except that ET cells are more robust and contain an adaptative mutation in the HCV NS4B gene instead of NS5A. Both cell lines are maintained in cultures at a sub-confluent level (<85%) as the level of replicon RNA is highest in actively proliferating cells. The culture media used for cell passaging consist of DMEM (Gibco BRL Laboratories, Mississauga, ON, Canada) supplemented with 10% foetal bovine serum with 1% penicillin/streptomycin, 1% glutamine, 1% sodium pyruvate, 1% non-essential amino acids, and 180 ug/ml of G418 final concentration. Cells are incubated at 37° C., in an atmosphere of 5% CO2 and passaged twice a week to maintain sub-confluence.
Approximately 3000 viable Huh-7, 5.2 or ET cells (100 μl) are plated per well in a white opaque 96-well microtiter plate. The cell culture media used for the assay is the same as described above except that it contains no G418 and no phenol red. After an incubation period of 3-4 hours at 37° C. in a 5% CO2 incubator, compounds (100 μl) are added at various concentrations. Cells are then further incubated for 4 days at 37° C. in a 5% CO2 incubator. Thereafter, the culture media is removed and cells are lysed by the addition of 95 μL of the luciferase buffer (luciferin substrate in buffered detergent). Cell lysates are incubated at room temperature and protected from direct light for at least 10 minutes. Plates are read for luciferase counts using a luminometer (Wallac MicroBeta Trilux, Perkin ELmer™, MA, USA).
The 50% inhibitory concentrations (IC50s) for inhibitory effect are determined from dose response curves using eleven concentrations per compound in duplicate. Curves are fitted to data points using nonlinear regression analysis, and IC50s are interpolated from the resulting curve using GraphPad Prism software, version 2.0 (GraphPad Software Inc., San Diego, Calif., USA).
Table 2 show compounds representative of the present invention and the EC50 values against the HCV 1b genotype.
(In a reporter assay the amount or activity of a reporter protein is the signal.)

As to `COC(=O)N[C@H](C(=O)N1CCC[C@H]1c1nc2cc(-c3cc(C)c(-c4ccc5nc([C@@H]6CCCN6C(=O)[C@@H](NC(=O)OC)C(C)C)[nH]c5c4)cc3C)ccc2[nH]1)C(C)C` [Compound 14, ((S)-1-{(S)-2-[5-(4-{2-[(S)-1-((S)-2-Methoxycarbonylamino-3-methyl-butyryl)-pyrrolidin-2-yl]-1H-benzoimidazol-5-yl}-2,5-dimethyl-phenyl)-1H-benzoimidazol-2-yl]-pyrrolidine-1-carbonyl}-2-methyl-propyl)-carbamicacid methyl ester], the EC50 was at most 5 nM.

In the case of `COC(=O)N[C@H](C(=O)N1CCC[C@H]1c1nc2cc(-c3cnc(-c4ccc5[nH]c([C@@H]6CCCN6C(=O)[C@@H](NC(=O)OC)C(C)C)nc5c4)nc3)ccc2[nH]1)C(C)C` [Compound 15, ((S)-1-{(S)-2-[5-(5-{2-[(S)-1-((S)-2-Methoxycarbonylamino-3-methyl-butyryl)-pyrrolidin-2-yl]-1H-benzoimidazol-5-yl}-pyrimidin-2-yl)-1H-benzoimidazol-2-yl]-pyrrolidine-1-carbonyl}-2-methyl-propyl)-carbamic acid methyl ester], the EC50 was at most 5 nM.

With `CC(C)(C)OC(=O)N1CCC[C@H]1c1nc2cc(-c3ccc(-c4ccc5[nH]c([C@@H]6CCCN6C(=O)OC(C)(C)C)nc5c4)s3)ccc2[nH]1` [Compound 16, (2S,2′S)-tert-butyl-2,2′-(5,5′-(thiophene-2,5-diyl)bis(1H-benzo[d]imidazole-5,2-diyl))dipyrrolidine-1-carboxylate], the EC50 was in the range of 5 to 5000 nM.

For `COC(=O)N[C@H](C(=O)N1CCC[C@H]1c1nc2cc(-c3ccc(-c4ccc5[nH]c([C@@H]6CCCN6C(=O)[C@@H](NC(=O)OC)C(C)C)nc5c4)s3)ccc2[nH]1)C(C)C` [Compound 17], the EC50 is at most 5 nM.

Take `COC(=O)N[C@H](C(=O)N1CCC[C@H]1c1nc2cc(-c3csc(-c4ccc5[nH]c([C@@H]6CCCN6C(=O)[C@@H](NC(=O)OC)C(C)C)nc5c4)c3)ccc2[nH]1)C(C)C` [Compound 18, methyl N-[(1S)-1-[(2S)-2-[5-[4-[2-[(2S)-1-[(2S)-2-(methoxycarbonylamino)-3-methyl-butanoyl]pyrrolidin-2-yl]-1H-benzimidazol-5-yl]-2-thienyl]-1H-benzimidazol-2-yl]pyrrolidine-1-carbonyl]-2-methyl-propyl]carbamate]: the EC50 was at most 5 nM.

Consider `COC(=O)N[C@H](C(=O)N1CCC[C@H]1c1nc2cc(-c3ncc(-c4ccc5nc([C@@H]6CCCN6C(=O)[C@@H](NC(=O)OC)C(C)C)[nH]c5c4)c(OCc4ccccc4)n3)ccc2[nH]1)C(C)C` [Compound 19, ((S)-1-{(S)-2-[5-(4-Benzyloxy-5-{2-[(S)-1-((S)-2-methoxycarbonylamino-3-methyl-butyryl)-pyrrolidin-2-yl]-1H-benzoimidazol-5-yl}-pyrimidin-2-yl)-1H-benzoimidazol-2-yl]-pyrrolidine-1-carbonyl}-2-methyl-propyl)-carbamic acid methyl ester], for which the EC50 was at most 5 nM.

Take `COC(=O)N[C@H](C(=O)N1CCC[C@H]1c1nc2cc(-c3ncc(-c4ccc5nc([C@@H]6CCCN6C(=O)[C@@H](NC(=O)OC)C(C)C)[nH]c5c4)c(O)n3)ccc2[nH]1)C(C)C` [Compound 20, ((S)-1-{(S)-2-[5-(4-Hydroxy-5-{2-[(S)-1-((S)-2-methoxycarbonylamino-3-methyl-butyryl)-pyrrolidin-2-yl]-1H-benzoimidazol-5-yl}-pyrimidin-2-yl)-1H-benzoimidazol-2-yl]-pyrrolidine-1-carbonyl}-2-methyl-propyl)-carbamic acid methyl ester]: the EC50 was in the range of 5 to 5000 nM.

Turning to `COC(=O)N[C@H](C(=O)N1CCC[C@H]1c1nc2ccc(-c3cn(-c4ccc5nc([C@@H]6CCCN6C(=O)[C@@H](NC(=O)OC)C(C)C)[nH]c5c4)nn3)cc2[nH]1)C(C)C` [Compound 21, ((S)-1-{(S)-2-[6-(1-{2-[(S)-1-((S)-2-Methoxycarbonylamino-3-methyl-butyryl)-pyrrolidin-2-yl]-3H-benzoimidazol-5-yl}-1H-[1,2,3]triazol-4-yl)-1H-benzoimidazol-2-yl]-pyrrolidine-1-carbonyl}-2-methyl-propyl)-carbamic acid methyl ester], the EC50 is at most 5 nM.

Take `CC[C@@H]1CC[C@@H](c2nc3cc(-c4ccc(-c5ccc6nc([C@@H]7CC[C@@H](CC)N7C(=O)[C@@H](NC(=O)OC)C(C)C)[nH]c6c5)cc4)ccc3[nH]2)N1C(=O)[C@@H](NC(=O)OC)C(C)C` [Compound 24, ((S)-1-{(2R,5S)-2-Ethyl-5-[5-(4-{2-[(2S,5R)-5-ethyl-1-((S)-2-methoxycarbonylamino-3-methyl-butyryl)-pyrrolidin-2-yl]-1H-benzoimidazol-5-yl}-phenyl)-1H-benzoimidazol-2-yl]-pyrrolidine-1-carbonyl}-2-methyl-propyl)-carbamic acid methyl ester]: the EC50 was at most 5 nM.

In the case of `COC(=O)N[C@H](C(=O)N1C[C@H](OC(C)(C)C)C[C@H]1c1nc2cc(-c3ccc(-c4ccc5[nH]c([C@@H]6C[C@@H](OC(C)(C)C)CN6C(=O)[C@@H](NC(=O)OC)C(C)C)nc5c4)cc3)ccc2[nH]1)C(C)C` [Compound 25, ((S)-1-{(2S,4R)-4-tert-butoxy-2-[5-(4-{2-[(2S,4R)-4-tert-butoxy-1-((S)-2-methoxycarbonylamino-3-methyl-butyryl)-pyrrolidin-2-yl]-1H-benzoimidazol-5-yl}-phenyl)-1H-benzoimidazol-2-yl]-pyrrolidine-1-carbonyl}-2-methyl-propyl)-carbamic acid methyl ester], the EC50 is at most 5 nM.

For the compound `COC(=O)N[C@H](C(=O)N1CCC[C@H]1c1nc2cc(F)c(-c3ccc(-c4cc5[nH]c([C@@H]6CCCN6C(=O)[C@@H](NC(=O)OC)C(C)C)nc5cc4F)cc3)cc2[nH]1)C(C)C` [Compound 27, Dimethyl (2S,2′S)-1,1′-((2S,2′S)-2,2′-(5,5′-(1,4-phenylene)bis(6-fluoro-1H-benzo[d]imidazole-5,2-diyl))bis(pyrrolidine-2,1-diyl))bis(3-methyl-1-oxobutane-2,1-diyl)dicarbamate], the EC50 is at most 5 nM.

As to `CC(C)(C)OC(=O)N1CCN(C(=O)OCc2ccccc2)[C@H](c2nc3cc(C#Cc4ccc5[nH]c([C@@H]6CCCCN6C(=O)OCc6ccccc6)nc5c4)ccc3[nH]2)C1` [Compound 28, (S)-2-{5-[2-((S)-1-Benzyloxycarbonyl-piperidin-2-yl)-1H-benzoimidazol-5-ylethynyl]-1H-benzoimidazol-2-yl}-piperazine-1,4-dicarboxylic acid 1-benzyl ester 4-tert-butyl ester], the EC50 fell in the range of 5 to 5000 nM.

With `CC(C)(C)OC(=O)N1CCN(C(=O)OCc2ccccc2)[C@H](c2nc3cc(C#Cc4ccc5[nH]c([C@@H]6CN(C(=O)OC(C)(C)C)CCN6C(=O)OCc6ccccc6)nc5c4)ccc3[nH]2)C1` [Compound 29, (S)-2-{5-[2-((S)-1-Benzyloxycarbonyl-4-tert-butyloxycarbonyl-piperazin-2-yl)-1H-benzoimidazol-5-ylethynyl]-1H-benzoimidazol-2-yl}-piperazine-1,4-dicarboxylic acid 1-benzyl ester 4-tert-butyl ester], the EC50 is over 5000 nM.

In the case of `O=C(OCc1ccccc1)N1CCCC[C@H]1c1nc2cc(C#Cc3ccc4nc([C@@H]5CCCCN5C(=O)OCc5ccccc5)[nH]c4c3)ccc2[nH]1` [Compound 30, (S)-2-{5-[2-((S)-1-Benzyloxycarbonyl-piperidin-2-yl)-1H-benzoimidazol-5-ylethynyl]-1H-benzoimidazol-2-yl}-piperidine-1-carboxylic acid benzyl ester], the EC50 was 5 to 5000 nM.

Regarding `O=C(OCc1ccccc1)N1CCC[C@H]1c1nc2cc(C#Cc3ccc4[nH]c([C@@H]5CCCN5C(=O)OCc5ccccc5)nc4c3)ccc2[nH]1` [Compound 31, (S)-2-{5-[2-((S)-1-Benzyloxycarbonyl-pyrrolidin-2-yl)-1H-benzoimidazol-5-ylethynyl]-1H-benzoimidazol-2-yl}-pyrrolidine-1-carboxylic acid benzyl ester], the EC50 lay in the range of 5 to 5000 nM.
